# Assay results taken from EP3778613A1, “THIRD GENERATION DENDRIMER, PROCESS FOR PRODUCTION THEREOF AND USE THEREOF” (Consejo Superior de Investigaciones Científicas (CSIC), priority 2019, dated 2021).
# How the values were obtained:
# [1] = Kinetics of reduction of PROXYL with ascorbate, followed by EPR; type: physicochemical; settings: nitroxide reduction with sodium ascorbate (10-fold excess per PROXYL unit), 100 mM PB pH 7.4, 300 K
# From the text: Electronic Paramagnetic Resonance Spectroscopy (EPR) spectra were obtained with an X-Band (9.4 GHz) Bruker ELEXSYS 500 spectrometer equipped with a TE102 microwave cavity, a Bruker variable temperature unit, a field frequency lock system Bruker ER 033 M and equipped with a NMR Gaussmeter Bruker ER 035 M. The modulation amplitude was kept well below the line width, and the microwave power was well below saturation. All samples were previously degassed with Ar. Experiments in aqueous phase were carried out with a quartz flat cell.
# Kinetics of reduction of PROXYL with ascorbate. All the solutions were freshly prepared in 100 mM phosphate buffer, pH 7.4. […]
# The effect of the dendritic scaffold on nitroxyl rate of reduction was investigated under pseudo-first-order conditions, using a 10-fold excess of sodium ascorbate per PROXYL unit in 100 mM PB pH 7.4 at 300 K. The reduction was monitored by EPR spectroscopy following the decrease of the area under the spectra as a function of time (Figure 4a). As reference, the rate of reduction of 3-carboxy-PROXYL was determined under identical conditions. […] Rate constants were determined by EPR spectroscopy following the decrease of the area under the spectra as a function of time.
# [2] = Relaxometric measurements (r1, r2 relaxivity) by MRI at 7 T; settings: 100 mM phosphate buffer pH 7.4, 300K
# Method: Magnetic Resonance Imaging (MRI) experiments were carried out in a BioSpec 70/30 Bruker system using a 7.0 T horizontal-bore superconducting magnet equipped with actively shielded gradients (B-GA12 gradient coil inserted into a B-GA20S gradient system). A quadrature 72 mm inner diameter volume coil was used for in vitro studies.
# Relaxometric measurements. Longitudinal (r1) and transverse (r2) relaxivities were determined per concentration of PROXYL units. […] The software used for the calculations of T1 and T2 relaxations was Paravision 6.0 (Bruker Software). r1 relaxivity. Series of axial T1-weighted (T1W) images were acquired for each concentration of PROXYL to obtain T1 maps based on a magnetization saturation experiment and the following parameters: repetition time (TR) = 70-6000 ms, echo time (TE) = 9.2 ms, field of view (FOV) = 2.5 x 2.5 cm, averages (Av) = 1, acquisition matrix (Mtx) = 128 x 128. The T1 values were calculated from the mean signal in the region of interest (ROI) for each repetition time, adjusted to the equation: S = S0 [1 - […]]. r2 relaxivity. T2 maps were calculated from multi spin echo images with a TR of 2 s. 25 echo images were acquired with a TE of 8.02 ms, which was the interval time between echo images acquisitions, too. […] The T2 values were calculated from mean signal in the ROI for each echo image, adjusted according to the equation: S = S0 […]]. […]
# [3] = r.t. 7T, reference value for the clinical Gd contrast agent; cited from earlier work
Structure (SMILES),Initial stage k (M^-1s^-1) x 10^3 [1] [M^-1s^-1 x 10^3],r1^7T ([2]; longitudinal relaxivity per unit of nitroxyl radical) [mM⁻¹ s⁻¹],r2^7T ([2]; transverse relaxivity per unit of nitroxyl radical) [mM⁻¹ s⁻¹],relaxivity [3] [s⁻¹ mM⁻¹]
"CC1(C)CC(C(=O)O)C(C)(C)N1[O] (stereo not shown) [3-carboxy PROXYL, 3-carboxy-PROXYL]",11.2,0.20 ± 0.014,0.23 ± 0.06,
O=C([O-])CN(CCN(CC(=O)[O-])CC(=O)O)CCN(CC(=O)[O-])CC(=O)O.[Gd+3] [Gd-DTPA],,,,3.2
